Laboratory results published in US20240025920A1, “SALT FORM USED AS CDC7 INHIBITOR AND CRYSTAL FORM THEREOF” (Chia Tai Tianqing Pharmaceutical Group Co., Ltd., priority 2020, published 2024).
Read-outs that look alike come from different tables or passages of the source.

Experiments:
[1] = Hygroscopicity test (25° C., saturated ammonium chloride solution, 24 h); assay type: physicochemical; conditions: 25° C./80% RH criteria
Procedure: A dry glass weighing bottle with a lid was placed in a dryer with saturated ammonium chloride solution placed in the lower part, and the weighing bottle was left to stand uncovered. A lid was put on the dryer, and the dryer was placed in a 25° C. box and left to stand overnight. After being left to stand overnight, the weighing bottle was taken out and precisely weighed, and the weight was denoted by m1.
A proper amount of crystal form A of the compound of formula (II) was measured out and spread in the weighed measuring bottle (the sample was about 1 mm thick). The measuring bottled was then precisely weighed, and the weight was denoted by m2.
The weighing bottle, together with its lid, was placed in a dryer with saturated ammonium chloride solution placed in the lower part and left to stand uncovered. A lid was put on the dryer, and the dryer was placed in a 25° C. box and left to stand for 24 h. After 24 h of sitting, the lid was put on the weighing bottle and the bottle was taken out and precisely weighed, the weight denoted by m3.
The hygroscopic weight gain was calculated using the formula: percent weight gain=100%×(m3−m2)/(m2−m1).

[2] = molecular target: CDC7/DBF4 kinase (Homo sapiens, UniProt O00311); experiment: ADP-Glo kinase assay, inhibition of CDC7/DBF4 kinase activity; assay type: biochemical; conditions: for IC50: CDC7/DBF4, 10 μM ATP
Text: The ADP-Glo™ kinase assay is a chemiluminescent kinase assay. The reaction of kinase with substrate requires ATP to provide energy, thereby converting ATP into ADP. The enzymatic activity is reflected by the amount of ADP produced in the reaction. In the assay, ADP is converted into ATP, and then ATP binds to Ultra-Glo™ Luciferase with light emitted; the intensity of light emission is directly proportional to the amount of ADP.
The ADP-Glo™ assay was used to investigate the inhibitory effect of crystal form A of the test compound of formula (II) on the activity of CDC7/DBF4 kinase. The highest concentration of the test compound was 10 μM, and 5-fold serial dilution was performed to obtain 8 concentration points. The compound was re-tested on a different day, and each test was performed in duplicate.
• 1) Preparation of 10 mM DTT (freshly prepared at the time of use) • 1 μL of 0.1 M DTT was measured out and 9 μL of deionized water was added. • 2) 2× assay buffer (freshly prepared at the time of use) • 168 μL of Kinase assay buffer III was measured out and 2.5-fold diluted with 248 μL of deionized water, and 4.2 μL of 10 mM DTT was added. The buffer was kept on ice before use. • 3) 1× assay buffer (freshly prepared at the time of use) • 250 μL of 2× assay buffer was measured out and diluted into 1× assay buffer by adding 250 μL of deionized water. The buffer was kept on ice before use. • 4) ADP-Glo Kinase Assay
The kit contains an ADP-Glo™ reagent, a kinase assay solution, a kinase assay solution matrix and a 10 mM ATP stock solution.
Preparation of the kinase assay solution: The kinase assay buffer and the kinase assay solution matrix were equilibrated to room temperature and then mixed. After complete dissolution, the solution was ready. The unused solution should be aliquoted and stored at −20° C.
ADP-Glo™ reagent: The reagent was equilibrated to room temperature at the time of the first use. The unused solution should be aliquoted and stored at −20° C.
• 1) 10 mM test compound was diluted to 1 mM with 100% DMSO: 5 μL of 10 mM test compound was added to 45 μL of 100% DMSO; the concentration of the compound dilution was 1 mM, and the dilution was put into row A of a 384-well compound plate as the highest concentration. • 2) To row B through row H of the 384-well compound plate was added 20 μL of 100% DMSO. • 3) From row A, 5 μL of compound was transferred to row B, and the mixture was well mixed. Then 5 μL of compound was transferred from row B to row C, and the mixture was well mixed. This procedure was repeated to row H to complete the serial dilution of the compound. • 4) Preparation of compound working solutions: 0.5 μL/well of compound was transferred to a new 384-well compound plate, and 9.5 μL of 1× assay buffer was added. […]

[3] = Stability test under accelerated conditions (HPLC related substances, appearance, crystal form, ee); assay type: physicochemical; design: impurity at RRT 0.31 / impurity at RRT 1.40 / impurity at RRT 0.23 / impurity at RRT 0.91 / impurity at RRT 0.98 / impurity at RRT 0.99 / impurity at RRT 1.08: unit not given here
Procedure: Instrument model: Agilent 1200 high performance liquid chromatograph
50 mg of crystal form A of the compound of formula (II) was measured and placed in a dry, clean glass bottle, spread into a thin layer, and left to stand under accelerated conditions (60° C., 25/92.5% RH, 40° C./75% RH and 60° C./75% RH). The sample was completely exposed, and the bottle was covered with aluminum foil in which holes are pricked. Samples were taken at 5 days, 10 days, 1 month, 2 months and 3 months and analyzed.

[4] = tested on: COLO205 cells; experiment: CellTiter-Glo cell viability assay, proliferation of COLO205 cells; assay type: cell-based, Human; conditions: for IC50: Homo sapiens, COLO 205, 72 h, COLO205, 3 days incubation
Text: In the assay, the inhibitory effect of crystal form A of the compound of formula (II) on the proliferation of colorectal cell COLO205 that highly expresses Cdc7 was investigated.
CellTiter-Glo® Luminescent Cell Viability Assay is a homogeneous rapid assay for the viability of living cells in cultures by ATP quantification. ATP is an indicator of the metabolism of living cells. Cell lysis and the luminescence signals generated are directly proportional to the amount of ATP that exists, and the amount of ATP is directly proportional to the number of living cells in cultures.
Cells having achieved 80%-90% cell fusion were digested with pancreatin. After the digestion was stopped with 1 mL of culture medium, the cells were transferred to a new culture dish according to a proper proportion, and 10 mL of fresh cell culture medium was added to the culture dish. Then the cell culture dish was placed in a 37° C., 5% CO2 incubator to continue the culture.
The compound was diluted to 2 mM with 100% DMSO—that is, 5 μL of 10 mM compound stock solution was transferred to column 1 of a 96-well compound plate, 20 μL of 100% DMSO was then added, and the mixture was well mixed. To column 2 through column 9 of the 96-well compound plate was added 20 μL of 100% DMSO. From column 1, 10 μL of compound was transferred to column 2, and the mixture was well mixed. Then 10 μL of compound was transferred from column 2 to column 3, and the mixture was well mixed. This procedure was repeated to column 9 to complete the serial dilution of the compound. Preparation of compound working solutions: From the compound plate, 2 μL/well of compound was transferred to a new 96-well compound plate, and 78 μL/well of cell culture medium was added. To a negative control well was added 2 μL of 100% DMSO followed by 78 μL of cell culture medium. The compound concentration was the final concentration. The blank control well was a culture medium well containing no cells. The negative control was […].
COLO205 cells having achieved 80%-90% cell fusion were digested with pancreatin and counted. After counting, the cell suspension was diluted with cell culture medium to a desired density. To each well of a 96-well cell culture plate was inoculated 80 μL of cell suspension. […]
After the incubation, 100 μL of CTG assay reagent was added to each well of the cell plate, and the plate was incubated at 25° C. for 10 min. After the incubation, luminescence signals were measured on Envision.
The signal value of the background blank control well was subtracted from the measured signal value of each group for standardization. […]
The percent inhibition was calculated from the original readings according to the calculation formula. A graph was then plotted using Prism and the IC50 of the compound was calculated.

CDC7/DBF4 kinase, sequence (O00311 whole entry): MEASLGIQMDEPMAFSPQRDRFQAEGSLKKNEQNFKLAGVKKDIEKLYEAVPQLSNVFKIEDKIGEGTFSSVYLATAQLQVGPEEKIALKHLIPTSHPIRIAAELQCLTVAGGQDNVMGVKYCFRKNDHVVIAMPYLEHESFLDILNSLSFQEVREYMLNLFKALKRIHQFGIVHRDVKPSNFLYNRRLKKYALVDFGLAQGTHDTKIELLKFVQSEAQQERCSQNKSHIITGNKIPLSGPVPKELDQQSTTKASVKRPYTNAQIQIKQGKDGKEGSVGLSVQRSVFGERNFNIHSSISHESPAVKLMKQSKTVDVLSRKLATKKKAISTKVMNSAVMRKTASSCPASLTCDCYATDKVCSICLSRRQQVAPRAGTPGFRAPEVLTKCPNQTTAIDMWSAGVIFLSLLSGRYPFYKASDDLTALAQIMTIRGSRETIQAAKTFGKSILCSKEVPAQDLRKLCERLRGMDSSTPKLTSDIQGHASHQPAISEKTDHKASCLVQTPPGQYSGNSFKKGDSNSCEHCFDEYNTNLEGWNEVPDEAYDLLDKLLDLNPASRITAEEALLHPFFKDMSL
CDC7/DBF4 kinase, sequence (Q9UBU7 whole entry partner): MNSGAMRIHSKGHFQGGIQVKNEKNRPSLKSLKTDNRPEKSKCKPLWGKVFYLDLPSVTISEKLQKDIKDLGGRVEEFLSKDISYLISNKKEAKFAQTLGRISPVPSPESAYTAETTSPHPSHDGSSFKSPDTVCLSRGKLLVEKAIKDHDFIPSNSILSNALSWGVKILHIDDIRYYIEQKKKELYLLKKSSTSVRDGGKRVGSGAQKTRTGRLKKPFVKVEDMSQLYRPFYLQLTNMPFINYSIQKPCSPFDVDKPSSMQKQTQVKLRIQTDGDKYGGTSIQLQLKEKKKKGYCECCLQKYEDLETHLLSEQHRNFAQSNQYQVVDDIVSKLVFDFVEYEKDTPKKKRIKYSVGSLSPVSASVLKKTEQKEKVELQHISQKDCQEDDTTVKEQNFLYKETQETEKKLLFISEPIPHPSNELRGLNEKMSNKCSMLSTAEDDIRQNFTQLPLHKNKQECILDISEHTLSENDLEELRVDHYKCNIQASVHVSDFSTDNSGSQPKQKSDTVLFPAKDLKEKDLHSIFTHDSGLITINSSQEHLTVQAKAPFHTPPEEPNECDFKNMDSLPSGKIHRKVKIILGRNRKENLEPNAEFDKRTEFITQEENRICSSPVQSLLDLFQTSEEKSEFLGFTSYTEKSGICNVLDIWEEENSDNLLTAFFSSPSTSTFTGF

O=C(O)/C=C\C(=O)O.O=c1[nH]c([C@@H]2CC3CCN2CC3)nc2c3c(sc12)-c1cn[nH]c1CCC3
category of hygroscopicity [1]: non-hygroscopic or hardly hygroscopic
IC50 ([2]; first assay, read-out: IC50 (nM) First assay): 3.49 nM
IC50 ([2]; mean of two assays, read-out: IC50 (nM) Mean): 2.92 nM
IC50 ([2]; second assay, read-out: IC50 (nM) Second assay): 2.35 nM
inhibitory effect on enzyme CDC7/DBF4 ([2]; conclusion in words): relatively strong inhibitory effect
Appearance ([3]; 0 days): White
ee % ([3]; 0 days): 99.028%
impurity at RRT 0.31 ([3]; 0 days): 0.02
Appearance ([3]; 25/92.5% RH-5 days): White
TRS(%) total impurity content ([3]; 25/92.5% RH-5 days): 0.03%
ee % ([3]; 25/92.5% RH-5 days): 98.77%
impurity at RRT 0.31 ([3]; 25/92.5% RH-5 days): 0.03
Appearance ([3]; 25/92.5% RH-10 days): White
TRS(%) total impurity content ([3]; 25/92.5% RH-10 days): 0.06%
ee % ([3]; 25/92.5% RH-10 days): 98.958%
impurity at RRT 0.31 ([3]; 25/92.5% RH-10 days): 0.03
impurity at RRT 1.40 ([3]; 25/92.5% RH-10 days): 0.03
Appearance ([3]; 40° C./75% RH-1 month): White
TRS(%) total impurity content ([3]; 40° C./75% RH-1 month): 0.02%
ee % ([3]; 40° C./75% RH-1 month): 99.380%
impurity at RRT 0.31 ([3]; 40° C./75% RH-1 month): 0.02
Appearance ([3]; 40° C./75% RH-2 months): White
TRS(%) total impurity content ([3]; 40° C./75% RH-2 months): 0.02%
ee % ([3]; 40° C./75% RH-2 months): 100%
impurity at RRT 0.91 ([3]; 40° C./75% RH-2 months): 0.02
Appearance ([3]; 40° C./75% RH-3 months): White
TRS(%) total impurity content ([3]; 40° C./75% RH-3 months): 0%
ee % ([3]; 40° C./75% RH-3 months): 100%
Appearance ([3]; 40° C./75% RH-10 days): White
TRS(%) total impurity content ([3]; 40° C./75% RH-10 days): 0.04%
ee % ([3]; 40° C./75% RH-10 days): 99.164%
impurity at RRT 0.23 ([3]; 40° C./75% RH-10 days): 0.02
impurity at RRT 0.31 ([3]; 40° C./75% RH-10 days): 0.02
Appearance ([3]; 60° C.-5 days): White
TRS(%) total impurity content ([3]; 60° C.-5 days): 0.06%
ee % ([3]; 60° C.-5 days): 98.632%
impurity at RRT 0.23 ([3]; 60° C.-5 days): 0.03
impurity at RRT 0.31 ([3]; 60° C.-5 days): 0.03
Appearance ([3]; 60° C.-10 days): White
TRS(%) total impurity content ([3]; 60° C.-10 days): 0.10%
ee % ([3]; 60° C.-10 days): 98.900%
impurity at RRT 0.23 ([3]; 60° C.-10 days): 0.02
impurity at RRT 0.31 ([3]; 60° C.-10 days): 0.03
impurity at RRT 1.08 ([3]; 60° C.-10 days): 0.05
Appearance ([3]; 60° C./75% RH-1 month): White
TRS(%) total impurity content ([3]; 60° C./75% RH-1 month): 0.08%
ee % ([3]; 60° C./75% RH-1 month): 100%
impurity at RRT 0.23 ([3]; 60° C./75% RH-1 month): 0.02
impurity at RRT 0.98 ([3]; 60° C./75% RH-1 month): 0.03
impurity at RRT 0.99 ([3]; 60° C./75% RH-1 month): 0.03
Appearance ([3]; 60° C./75% RH-10 days): White
TRS(%) total impurity content ([3]; 60° C./75% RH-10 days): 0.03%
ee % ([3]; 60° C./75% RH-10 days): 98.872%
impurity at RRT 0.23 ([3]; 60° C./75% RH-10 days): 0.03
stability (impurity content) under high temperature and high humidity conditions ([3]; conclusion in words): the stability is good
IC50 ([4]; first assay, read-out: COLO205(nM) IC50 First assay): 14.3 nM
IC50 ([4]; mean of two assays, read-out: COLO205(nM) IC50 Mean): 14.5 nM
IC50 ([4]; second assay, read-out: COLO205(nM) IC50 Second assay): 14.7 nM
inhibitory effect on COLO205 cells ([4]; conclusion in words): relatively strong inhibitory effect
